Test results reported in patent publication EP3325465B1, “PESTICIDALLY ACTIVE PYRAZOLE DERIVATIVES” (Syngenta Participations AG, priority 2015, dated 2017).
Where two headings read alike, the source gives them in different places.

Tests used:
Assay type in all cases: in vivo
[1] = tested on: Plutella xylostella (Diamond back moth); assay: Plutella xylostella artificial diet test, L2 larvae; conditions: 120 h, application rate of 200 ppm, mortality and growth inhibition 5 days after infestation
Source text: (§1) The pesticidal/insecticidal properties of the compounds according to embodiments 1 or 2 can be illustrated via the following tests: Spodoptera littoralis (Egyptian cotton leaf worm) • Cotton leaf discs were placed onto agar in 24-well microtiter plates and sprayed with aqueous test solutions prepared from 10'000 ppm DMSO stock solutions. After drying the leaf discs were infested with five L1 larvae. […] Plutella xylostella (Diamond back moth): 24-well microtiter plates with artificial diet were treated with aqueous test solutions prepared from 10'000 ppm DMSO stock solutions by pipetting. After drying, the plates were infested with L2 larvae (10 to 15 per well). The samples were assessed for mortality and growth inhibition in comparison to untreated samples 5 days after infestation. […] Diabrotica balteata, (Corn root worm) • Maize sprouts placed onto an agar layer in 24-well microtiter plates were treated with aqueous test solutions prepared from 10'000 ppm DMSO stock solutions by spraying. After drying, the plates were infested with L2 larvae (6 to 10 per well). […] Thrips tabaci (Onion thrips): Sunflower leaf discs were placed on agar in 24-well microtiter plates and sprayed with aqueous test solutions prepared from 10'000 ppm DMSO stock solutions. After drying the leaf discs were infested with a thrips population of mixed ages. The samples were assessed for mortality 6 days after infestation. […] Tetranychus urticae (Two-spotted spider mite): Bean leaf discs on agar in 24-well microtiter plates were sprayed with aqueous test solutions prepared from 10'000 ppm DMSO stock solutions. After drying the leaf discs were infested with a mite population of mixed ages. The samples were assessed for mortality on mixed population (mobile stages) 8 days after infestation. […] Euschistus heros (Neotropical Brown Stink Bug): • Two weeks old soybean plants were sprayed in a turn table spray chamber with the diluted spray solutions. After drying 2 soybean seeds were added and plants were infested with 10 N2 nymphs of the neotropical brown stink bug Euschistus heros in plastic test boxes. The samples were assessed for mortality in comparison to untreated samples 5 days after infestation. • The following compounds gave at least 80% mortality of Euschistus heros at an application rate of 12.5 ppm: Compounds 3 , 4 , 8 , 39 , 43 , 44 , 46 , 75 , 76 , 77 , 78 , 79 , 80 , 81 , 82 , 88 , 90 , 93 and 95 . Myzus persicae (Green peach aphid): Sunflower leaf discs were placed on agar in a 24-well microtiter plate and sprayed with test solutions at an application rate of 200 ppm. After drying, the leaf discs were infested with an aphid population of mixed ages. After an incubation period of 6 DAT, samples were checked for mortality. The following compounds gave at least 50% mortality of Myzus persicae: Compounds 3 , 4 , 8 , 43 , 44 , 75 , 76 , 77 , 80 , 81 , 90 and 92 . Myzus persicae (Green peach aphid): • Test compounds were applied by pipette into 24 well plates and mixed with Sucrose solution. Application rate: 12.5ppm. The plates were closed with a stretched parafilm. A plastic stencil with 24 holes is placed onto the plate and infested pea seedlings were placed directly on the Parafilm. The infested plate is closed with a gel blotting paper and another plastic stencil and then turned upside down. […]

[2] = tested on: Euschistus heros (Neotropical Brown Stink Bug); assay: Euschistus heros soybean plant spray test, N2 nymphs; conditions: 120 h, application rate of 12.5 ppm, 5 days after infestation, N2 nymphs, read-out: mortality of Euschistus heros
Source text: as §1

[3] = tested on: Thrips tabaci (Onion thrips); assay: Thrips tabaci sunflower leaf disc spray test; conditions: foliar, 144 h, application rate of 200 ppm, mortality 6 days after infestation, mixed ages
Source text: as §1

[4] = tested on: Spodoptera littoralis (Egyptian cotton leaf worm); assay: Spodoptera littoralis cotton leaf disc spray test, L1 larvae; conditions: foliar, 72 h
Source text: as §1

[5] = tested on: Diabrotica balteata, (Corn root worm); assay: Diabrotica balteata maize sprout spray test, L2 larvae; conditions: 96 h
Source text: as §1

[6] = tested on: Tetranychus urticae (Two-spotted spider mite); assay: Tetranychus urticae bean leaf disc spray test; conditions: foliar, 192 h, application rate of 200 ppm, mortality on mixed population (mobile stages) 8 days after infestation
Source text: as §1

[7] = tested on: Myzus persicae (Green peach aphid); assay: Myzus persicae sucrose solution / Parafilm feeding test; conditions: 120 h, Application rate: 12.5ppm, sucrose solution, 5 days after infestation, read-out: mortality of Myzus persicae
Source text: as §1

[8] = application rate of 200 ppm, 3 days after infestation, L1 larvae, read-out: mortality
[9] = application rate of 200 ppm, 4 days after infestation, L2 larvae, read-out: mortality

Cn1nc(C(F)(F)C(F)(F)F)c(C(F)(F)F)c1-c1cc(-c2ccc(Cl)c(C(=O)NC3(c4ccccn4)CC3)c2)on1 [Compound 95, 2-chloro-5-[3-[2-methyl-5-(1,1,2,2,2-pentafluoroethyl)-4-(trifluoromethyl)pyrazol-3-yl]isoxazol-5-yl]-N-[1-(2-pyridyl)cyclopropyl]benzamide]
≥ 80%: pest or weed control at 200 ppm [1] | mortality at 12.5 ppm [2] | pest or weed control at 200 ppm [3] | mortality at 200 ppm [4, 8] | mortality at 200 ppm [5, 9]

C=C(Cl)CNC(=O)c1cc(-c2cc(-c3c(C(F)(F)F)c(C(F)(F)C(F)(F)F)nn3C)no2)ccc1Cl [Compound 82, 2-chloro-N-(2-chloroallyl)-5-[3-[2-methyl-5-(1,1,2,2,2-pentafluoroethyl)-4-(trifluoromethyl)pyrazol-3-yl]isoxazol-5-yl]benzamide]
≥ 80%: pest or weed control at 200 ppm [1] | mortality at 12.5 ppm [2] | pest or weed control at 200 ppm [3] | mortality at 200 ppm [4, 8] | mortality at 200 ppm [5, 9]

Cn1nc(C(F)(F)C(F)(F)F)c(C(F)(F)F)c1-c1nc(-c2ccc(Cl)c(C(=O)NC3(C#N)CC3)c2)cs1 [Compound 54, 2-chloro-N-(1-cyanocyclopropyl)-5-[2-[2-methyl-5-(1,1,2,2,2-pentafluoroethyl)-4-(trifluoromethyl)pyrazol-3-yl]thiazol-4-yl]benzamide]
≥ 80%: pest or weed control at 200 ppm [1] | pest or weed control at 200 ppm [3] | mortality at 200 ppm [4] | mortality at 200 ppm [5] | pest or weed control at 200 ppm [6]

Cn1nc(C(F)(F)C(F)(F)F)c(C(F)(F)F)c1-c1cc(-c2ccc(Cl)c(C(=O)NC3(C#N)CC3)c2)[nH]n1 [Compound 72, 2-chloro-N-(1-cyanocyclopropyl)-5-[3-[2-methyl-5-(1,1,2,2,2-pentafluoroethyl)-4-(trifluoromethyl)pyrazol-3-yl]-1H-pyrazol-5-yl]benzamide]
≥ 80%: pest or weed control at 200 ppm [1] | mortality at 200 ppm [4, 8] | mortality at 12.5 ppm [7] | mortality at 200 ppm [5, 9]

Cn1nc(C(F)(F)C(F)(F)F)c(C(F)(F)F)c1-c1cc(-c2ccc(Cl)c(C(=O)NC3CCOC3=O)c2)on1 (stereo not drawn) [Compound 78, 2-chloro-5-[3-[2-methyl-5-(1,1,2,2,2-pentafluoroethyl)-4-(trifluoromethyl)pyrazol-3-yl]isoxazol-5-yl]-N-(2-oxotetrahydrofuran-3-yl)benzamide]
≥ 80%: mortality at 12.5 ppm [2] | pest or weed control at 200 ppm [3] | mortality at 200 ppm [4, 8] | mortality at 200 ppm [5, 9] | pest or weed control at 200 ppm [6]

C#CCNC(=O)c1cc(-c2cc(-c3c(C(F)(F)F)c(C(F)(F)C(F)(F)F)nn3C)no2)ccc1Cl [Compound 79, 2-chloro-5-[3-[2-methyl-5-(1,1,2,2,2-pentafluoroethyl)-4-(trifluoromethyl)pyrazol-3-yl]isoxazol-5-yl]-N-prop-2-ynyl-benzamide]
≥ 80%: pest or weed control at 200 ppm [1] | mortality at 12.5 ppm [2] | pest or weed control at 200 ppm [3] | mortality at 200 ppm [4, 8] | mortality at 200 ppm [5, 9] | pest or weed control at 200 ppm [6]

C=C(F)CNC(=O)c1cc(-c2cc(-c3c(C(F)(F)F)c(C(F)(F)C(F)(F)F)nn3C)no2)ccc1Cl [Compound 86, 2-ch loro-N-(2-fluoroallyl)-5-[3-[2-methyl-5-(1,1,2,2,2-pentafluoroethyl)-4-(trifluoromethyl)pyrazol-3-yl]isoxazol-5-yl]benzamide]
≥ 80%: pest or weed control at 200 ppm [1] | pest or weed control at 200 ppm [3] | mortality at 200 ppm [4, 8] | mortality at 200 ppm [5, 9] | pest or weed control at 200 ppm [6]

Cn1nc(C(F)(F)C(F)(F)F)c(C(F)(F)F)c1-c1cc(-c2ccc(Cl)c(C(=O)NC3(C(F)(F)F)CC3)c2)on1 [Compound 88, 2-chloro-5-[3-[2-methyl-5-(1,1,2,2,2-pentafluoroethyl)-4-(trifluoromethyl)pyrazol-3-yl]isoxazol-5-yl]-N-[1-(trifluoromethyl)cyclopropyl]benzamide]
≥ 80%: pest or weed control at 200 ppm [1] | mortality at 12.5 ppm [2] | pest or weed control at 200 ppm [3] | mortality at 200 ppm [4, 8] | mortality at 200 ppm [5, 9]

Cn1nc(C(F)(F)C(F)(F)F)c(C(F)(F)F)c1-c1cc(-c2ccc(Cl)c(C(=O)NCC(F)F)c2)on1 [Compound 97, 2-chloro-N-(2,2-difluoroethyl)-5-[3-[2-methyl-5-(1,1,2,2,2-pentafluoroethyl)-4-(trifluoromethyl)pyrazol-3-yl]isoxazol-5-yl]benzamide]
≥ 80%: pest or weed control at 200 ppm [1] | mortality at 200 ppm [4, 8] | mortality at 12.5 ppm [7] | mortality at 200 ppm [5, 9]

Cn1nc(C(F)(F)C(F)(F)F)c(C(F)(F)F)c1-c1cnn(-c2ccc(Cl)c(C(=O)NC3(C#N)CC3)c2)c1 [Compound 38, 2-chloro-N-(1-cyanocyclopropyl)-5-[4-[2-methyl-5-(1,1,2,2,2-pentafluoroethyl)-4-(trifluoromethyl)pyrazol-3-yl]pyrazol-1 - yl]benzamide]
≥ 80%: mortality at 12.5 ppm [7]

Cn1nc(-c2c(C(F)(F)F)c(C(F)(F)C(F)(F)F)nn2C)cc1-c1ccc(Cl)c(C(=O)NC2CC2)c1 [Compound 41, 2-chloro-N-cyclopropyl-5-[2-methyl-5-[2-methyl-5-(1,1,2,2,2-pentafluoroethyl)-4-(trifluoromethyl)pyrazol-3-yl]pyrazol-3-yl]benzamide]
≥ 80%: pest or weed control at 200 ppm [1] | pest or weed control at 200 ppm [3] | mortality at 200 ppm [4, 8] | mortality at 200 ppm [5, 9] | pest or weed control at 200 ppm [6]

CC(C)CNC(=O)c1cc(-c2cc(-c3c(C(F)(F)F)c(C(F)(F)C(F)(F)F)nn3C)no2)ccc1Cl [Compound 87, 2-chloro-N-isobutyl-5-[3-[2-methyl-5-(1,1,2,2,2-pentafluoroethyl)-4-(trifluoromethyl)pyrazol-3-yl]isoxazol-5-yl]benzamide]
≥ 80%: pest or weed control at 200 ppm [1] | pest or weed control at 200 ppm [3] | mortality at 200 ppm [4, 8] | mortality at 200 ppm [5, 9] | pest or weed control at 200 ppm [6]

Cn1nc(C(F)(F)C(F)(F)F)c(C(F)(F)F)c1-c1cc(-c2ccc(Cl)c(C(=O)NC3(C#N)CC3)c2)ns1 [Compound 46, 2-chloro-N-(1-cyanocyclopropyl)-5-[5-[2-methyl-5-(1,1,2,2,2-pentafluoroethyl)-4-(trifluoromethyl)pyrazol-3-yl]isothiazol-3-yl]benzamide]
≥ 80%: mortality at 12.5 ppm [2] | mortality at 200 ppm [4, 8]
